Results taken from US9648878B2, “Herbicidal agents containing flufenacet” (BAYER CROPSCIENCE AG, priority 2012, dated 2017).

Assays:
[1] = system: LOLSS resistant to HRAC group B; assay: Greenhouse post-emergence herbicidal action on resistant Lolium biotype (HRAC group B resistant); assay type: in vivo, Lolium spp.; conditions: post-emergence (PO, BBCH 11); dose g of AS/ha: flufenacet 60, aclonifen 150, diflufenican 37.5, (A)+(B)+(C) 60+150+37.5, pinoxaden+cloquintocet-mexyl 60+15, mesosulfuron+iodosulfuron+mefenpyr 15+3+45
Procedure: (§1) In the standard implementation of the test, seeds of various broad-leaved weed and weed grass biotypes (origins) were sown in an 8-13 cm diameter pot filled with natural soil of a standard field soil (loamy silt; non-sterile) and covered with a covering soil layer of about 1 cm. The pots were then cultivated in a greenhouse (12-16 h light, temperature day 20-22° C., night 15-18° C.) until the time of application. The pots were treated on a laboratory track sprayer with spray liquors comprising the compositions according to the invention, mixtures of the prior art or the components applied individually. Application of the active compounds or active compound combinations formulated as WG, WP, EC or otherwise was carried out at the appropriate growth stages of the plants. The amount of water used for spray application was 100-600 I/ha. After the treatment, the plants were returned to the greenhouses.
(§2) About 3 weeks after the application, the soil action or/and foliar action was assessed visually according to a scale of 0-100% in comparison to an untreated comparative group: 0%=no noticable effect compared to the untreated comparative group; 100%=full effect compared to the untreated comparative group.
(§3) 2. Post-emergence action against weeds: seeds of various broad-leaved weed and weed grass biotypes (origins) were sown in an 8-13 cm diameter pot filled with natural soil of a standard field soil (loamy silt; non-sterile) and covered with a covering soil layer of about 1 cm. […]
(§4) Insofar as herbicidal effects of the compositions according to the invention compared to mixtures of the prior art or compared to components applied individually against economically important mono- and dicotyledonous harmful plants were the center of attention, the synergistic herbicidal activities were calculated using Colby's formula (cf. S. R. Colby; Weeds 15 (1967), 20-22): E^C=(A+B+C)−(A×B+A×C+B×C)/100+(A×B×C)/10000 […]
(§5) Δ=difference (%) of the measured value (%) to the expected value (%) (measured value minus expected value) […]

[2] = system: LOLSS resistant to HRAC group A; assay: Greenhouse post-emergence herbicidal action on resistant Lolium biotype (HRAC group A resistant); assay type: in vivo, Lolium spp.; conditions: post-emergence (PO, BBCH 11); dose g of AS/ha: flufenacet 60, aclonifen 150, diflufenican 37.5, (A)+(B)+(C) 60+150+37.5, pinoxaden+cloquintocet-mexyl 60+15, mesosulfuron+iodosulfuron+mefenpyr 15+3+45
Procedure: as §1, §2, §3, §4, §5

SMILES: O=C(Nc1ccc(F)cc1F)c1cccnc1Oc1cccc(C(F)(F)F)c1 [diflufenican (C), N-(2,4-difluorophenyl)-2-[3-(trifluoromethyl)phenoxy]-3-pyridinecarboxamide]
- herbicidal effect (visual score 0-100% vs untreated), LOLSS resistant to HRAC group B [1]: 35%
- herbicidal effect (visual score 0-100% vs untreated), LOLSS resistant to HRAC group A [2]: 23%

SMILES: Nc1c([N+](=O)[O-])ccc(Oc2ccccc2)c1Cl [aclonifen (B), 2-chloro-6-nitro-3-phenoxybenzenamine]
- herbicidal effect (visual score 0-100% vs untreated), LOLSS resistant to HRAC group B [1]: 38%
- herbicidal effect (visual score 0-100% vs untreated), LOLSS resistant to HRAC group A [2]: 5%

SMILES: CC(C)N(C(=O)COc1nnc(C(F)(F)F)s1)c1ccc(F)cc1 [flufenacet (A), N-(4-fluorophenyl)-N-(1-methylethyl)-2-[[5-(trifluoromethyl)-1,3,4-thiadiazol-2-yl]oxy]acetamide]
- herbicidal effect (visual score 0-100% vs untreated), LOLSS resistant to HRAC group B [1]: 60%
- herbicidal effect (visual score 0-100% vs untreated), LOLSS resistant to HRAC group A [2]: 18%
